25 compounds from paper PMC4197335, “Cancer-Selective Targeting of the NF-κB Survival Pathway with GADD45β/MKK7 Inhibitors” (Cancer Cell, 2014) can be followed below.

As a reminder, the inhibition is the percentage by which the read-out fell short of the control.

This test has as its target T1, GADD45β/MKK7 complex (Homo sapiens, UniProt O14733).
T1 construct: Full-length human (h)MKK7 was expressed as a protein fused to an N-terminal GST tag (GST-MKK7); made in house
T1 sequence (O14733 1-419): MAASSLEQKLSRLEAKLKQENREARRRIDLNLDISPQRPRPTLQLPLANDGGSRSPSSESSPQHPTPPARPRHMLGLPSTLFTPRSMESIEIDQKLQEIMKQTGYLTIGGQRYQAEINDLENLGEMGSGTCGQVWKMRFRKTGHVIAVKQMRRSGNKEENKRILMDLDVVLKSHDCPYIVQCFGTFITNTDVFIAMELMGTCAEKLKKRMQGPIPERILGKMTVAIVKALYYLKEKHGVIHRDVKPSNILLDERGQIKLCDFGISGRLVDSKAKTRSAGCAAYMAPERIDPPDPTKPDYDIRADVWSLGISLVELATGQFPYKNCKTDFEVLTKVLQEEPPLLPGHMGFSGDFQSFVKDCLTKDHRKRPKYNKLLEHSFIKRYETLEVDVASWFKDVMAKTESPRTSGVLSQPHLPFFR
Briefly: ELISA GADD45β/MKK7 competition assay. Type of test: binding. The text has this:
Additional details are provided in Supplemental Experimental Procedures.
(1:1,000) and the HRP chromogenic substrate, o -phenylenediamine (OPD). GST -coated wells wer e […]
The ELISA competition screen used f or the isolation of antagonists of the GADD45β /MKK7 […]
The library deconvolution strategy used for this screen was described previously […]
General information about this type of screens can be found elsewhere […]
Values were expressed as the percentage of inhibition of His6-hGADD45β binding to GST-hMKK7 relative to the binding measured in the absence of […]
Dose-response, ELISA GADD45β /MKK7 competition assays were carried out under similar […]
As part of the SAR analysis and lead optimization process, where appropriate, competitors were tested at a concentration up to 100 nM. In order to determine their stability in biolog ical f luids , peptides were incubated at the concentration of 10 µM in […]
calculated using at least 7 concentrations of peptide and def ined as the mean concentration of peptide […]
the absence of competitor. W here indicated, values were expressed as the percentage of inhibition of His 6 -hGADD45β binding to GST-hMKK7 relative to the binding measured in the absence of competitor.
GST was used as a control in all the experiments. […]
tetrapeptide used as negative control in some of the ELISA and cellular assays was as f ollows: z -DNC, z-T yr -Asp-His-Gln-NH 2 . […]
Background: ELISA stands for enzyme-linked immunosorbent assay.

Where [1] appears, read: Table S3, peptide at 10 nM, read-out: % inhibition (ELISA).
Setting [2] is: Table S3, read-out: IC50 (ELISA).
Setting [3] is: Table S4, values marked (#), peptide at 42 nM, read-out: % inhibition of (ELISA).
The mark [4] stands for this setting: Figure 3A, before preincubation with human serum, read-out: IC50.
The mark [5] stands for this setting: Figure 3B, after a 48 hr preincubation with human serum, read-out: IC50.
Setting [6] is: Table S2, peptide at 42 nM, read-out: % inhibition (ELISA).
Setting [7] is: Table S4, read-out: IC50s (ELISA).

Where two headings read alike, the source gives them in different places. Where a SMILES comes first, the peptide text is derived from it. [ ]: non-standard residue; d: D form. The star is where a group is joined. Benzoyl(3-OH,4-OMe) = COc1ccc(C(=O)*)cc1O; ClZ = O=C(OCc1ccccc1Cl)*; Cbz = O=C(OCc1ccccc1)*

`COc1ccc(C(=O)N[C@H](Cc2ccc(O)cc2)C(=O)N[C@H](CC(=O)O)C(=O)N[C@H](Cc2c[nH]cn2)C(=O)N[C@H](Cc2ccccc2)C(N)=O)cc1O` ({Benzoyl(3-OH,4-OMe)}-[dY][dD][dH][dF]-NH2): the inhibition at 0.01 µM (read-out: % inhibition (ELISA)) stood at 81%. With `COc1ccc(C(=O)N[C@H](Cc2ccc(O)cc2)C(=O)N[C@H](CC(=O)O)C(=O)N[C@H](Cc2c[nH]cn2)C(=O)N[C@H](CCC(N)=O)C(N)=O)cc1O` ({Benzoyl(3-OH,4-OMe)}-[dY][dD][dH][dQ]-NH2), for the setting “read-out: % inhibition (ELISA)”, the inhibition at 0.01 µM came out at 7%. In the case of `COc1ccc(C(=O)N[C@H](Cc2ccc(O)cc2)C(=O)N[C@H](CCC(=O)O)C(=O)N[C@H](CCCNC(=N)N)C(=O)N[C@H](Cc2ccccc2)C(N)=O)cc1O` ({Benzoyl(3-OH,4-OMe)}-[dY][dE][dR][dF]-NH2), the inhibition at 0.01 µM (read-out: % inhibition (ELISA)) amounted to 86%.

As for `NC(=O)[C@@H](Cc1ccccc1)NC(=O)[C@@H](Cc1c[nH]cn1)NC(=O)[C@@H](CC(=O)O)NC(=O)[C@@H](Cc1ccc(O)cc1)NC(=O)OCc1ccccc1Cl` [2CI-z-YDHF-NH2] (ClZ-[dY][dD][dH][dF]-NH2), the inhibition at 0.01 µM under setting [1] was 38%. Moreover, the IC50 under setting [2] was over 10 nM. Consider `NC(=O)CC[C@@H](NC(=O)[C@@H](Cc1c[nH]cn1)NC(=O)[C@@H](CC(=O)O)NC(=O)[C@@H](Cc1ccc(O)cc1)NC(=O)OCc1ccccc1Cl)C(N)=O` [2CI-z-YDHQ-NH2] (ClZ-[dY][dD][dH][dQ]-NH2), for which, under setting [1], the inhibition at 0.01 µM stood at 40%. Further, under setting [2], the IC50 was over 10 nM. For `N=C(N)NCCC[C@@H](NC(=O)[C@@H](CCC(=O)O)NC(=O)[C@@H](Cc1ccc(O)cc1)NC(=O)OCc1ccccc1Cl)C(=O)N[C@H](Cc1ccccc1)C(N)=O` [2CI-z-YERF-NH2] (ClZ-[dY][dE][dR][dF]-NH2), in that order: 38% and over 10 nM. In the case of `CC(=O)NC(C)C(=O)NC(CCC(=O)O)C(=O)NC(CCCNC(=N)N)C(=O)NC(Cc1ccccc1)C(N)=O` (stereo not drawn) [Ac-AERF-NH2] (Ac-AERF-NH2; configuration not given here), the inhibition at 0.042 µM under setting [3] came out at 7%. As to `CC(=O)N[C@H](Cc1ccc(O)cc1)C(=O)N[C@H](CC(=O)O)C(=O)N[C@H](Cc1c[nH]cn1)C(=O)N[C@H](Cc1ccccc1)C(N)=O` [Ac-DTP1, Ac-Tyr-Asp-His-Phe-NH2], the IC50 under setting [4] is 0.19 nM and the IC50 under setting [5] was 0.2 nM. For `CC(=O)N[C@H](Cc1ccc(O)cc1)C(=O)N[C@H](CCC(=O)O)C(=O)N[C@H](CCCNC(=N)N)C(=O)N[C@H](Cc1ccccc1)C(N)=O` [Ac-DTP2, Ac-Tyr-Glu-Arg-Phe-NH2], in that order: 0.22 nM and 0.22 nM.

On to `CC(=O)N[C@@H](Cc1ccc(O)cc1)C(=O)N[C@@H](CC(=O)O)C(=O)N[C@@H](Cc1c[nH]cn1)C(=O)N[C@@H](Cc1ccccc1)C(N)=O` [Ac-LTP1, Ac-YDHF-NH2], for which the IC50 is, setting by setting: under setting [4], 0.4 nM; under setting [5], over 10 nM. The inhibition at 0.042 µM under setting [6] is 94%.

Take `CC(=O)N[C@@H](Cc1ccc(O)cc1)C(=O)N[C@@H](CCC(=O)O)C(=O)N[C@@H](CCCNC(=N)N)C(=O)N[C@@H](Cc1ccccc1)C(N)=O` [Ac-LTP2, Ac-YERF-NH2]: the IC50 under setting [5] was over 10 nM and the IC50 under setting [7] is 0.4 nM. The inhibition at 0.042 µM under setting [6] was determined as 93%. `CC(=O)N1CCCC1C(=O)NC(CCC(=O)O)C(=O)NC(CCCNC(=N)N)C(=O)NC(Cc1ccccc1)C(N)=O` (stereo not drawn) [Ac-PERF-NH2] (Ac-PERF-NH2; configuration not given here): the inhibition at 0.01 µM (Table S4, values marked (##), peptide at 10 nM, read-out: % inhibition of (ELISA)) was determined as 24%. Take `CC(=O)N[C@@H](Cc1c[nH]c2ccccc12)C(=O)N[C@@H](CC(=O)O)C(=O)N[C@@H](Cc1c[nH]cn1)C(=O)N[C@@H](Cc1ccccc1)C(N)=O` [Ac-WDHF-NH2] (Ac-WDHF-NH2): the inhibition at 0.042 µM under setting [6] is 28%. Also, the IC50 under setting [7] was over 42 nM. With `CC(=O)N[C@@H](Cc1c[nH]c2ccccc12)C(=O)N[C@@H](CC(=O)O)C(=O)N[C@@H](CCCCN)C(=O)N[C@@H](Cc1ccccc1)C(N)=O` [Ac-WDKF-NH2] (Ac-WDKF-NH2), under setting [6], the inhibition at 0.042 µM was found to be 25%.

On to `CC(=O)N[C@@H](Cc1c[nH]c2ccccc12)C(=O)N[C@@H](CC(=O)O)C(=O)N[C@@H](CCCCN)C(=O)N[C@@H](Cc1c[nH]c2ccccc12)C(N)=O` [Ac-WDKW-NH2] (Ac-WDKW-NH2), for which, under setting [6], the inhibition at 0.042 µM amounted to 69%. Further, the IC50 under setting [7] was under 42 nM. For `CC(=O)N[C@@H](Cc1c[nH]c2ccccc12)C(=O)N[C@@H](CCC(=O)O)C(=O)N[C@@H](Cc1c[nH]cn1)C(=O)N[C@@H](Cc1c[nH]c2ccccc12)C(N)=O` [Ac-WEHW-NH2] (Ac-WEHW-NH2), in that order: 75% and under 42 nM.

Regarding `CC(=O)N[C@@H](Cc1c[nH]c2ccccc12)C(=O)N[C@@H](CCC(=O)O)C(=O)N[C@@H](CCCCN)C(=O)N[C@@H](Cc1ccccc1)C(N)=O` [Ac-WEKF-NH2] (Ac-WEKF-NH2), the inhibition at 0.042 µM under setting [6] was found to be 65%. Besides, the IC50 under setting [7] was under 42 nM. The matching figures for `CC(=O)N[C@@H](Cc1c[nH]c2ccccc12)C(=O)N[C@@H](CCC(=O)O)C(=O)N[C@@H](CCCCN)C(=O)N[C@@H](Cc1c[nH]c2ccccc12)C(N)=O` [Ac-WEKW-NH2] (Ac-WEKW-NH2): 58% and under 42 nM. `CC(=O)N[C@@H](Cc1c[nH]c2ccccc12)C(=O)N[C@@H](CCC(=O)O)C(=O)N[C@@H](CCCNC(=N)N)C(=O)N[C@@H](Cc1ccccc1)C(N)=O` [Ac-WERF-NH2] (Ac-WERF-NH2): the inhibition at 0.042 µM under setting [6] was 28%. Under setting [7], the IC50 is over 42 nM. For the compound `CC(=O)N[C@@H](Cc1c[nH]c2ccccc12)C(=O)N[C@@H](CCC(=O)O)C(=O)N[C@@H](CCCNC(=N)N)C(=O)N[C@@H](Cc1c[nH]c2ccccc12)C(N)=O` [Ac-WERW-NH2] (Ac-WERW-NH2), the inhibition at 0.042 µM is 64% under setting [6] and 69% under setting [3]. Moreover, the IC50 under setting [7] was under 42 nM. Turning to `CC(=O)N[C@H](Cc1ccc(O)cc1)C(=O)N[C@H](C)C(=O)N[C@H](CCCNC(=N)N)C(=O)N[C@H](Cc1ccccc1)C(N)=O` [Ac-YARF-NH2] (Ac-[dY][dA][dR][dF]-NH2), the inhibition at 0.042 µM (read-out: % inhibition of (ELISA)) stood at 17%. `CC(=O)N[C@H](Cc1ccc(O)cc1)C(=O)N[C@H](CC(=O)O)C(=O)N[C@H](Cc1c[nH]cn1)C(=O)N[C@H](Cc1ccccc1)C(=O)N[C@H](CCCCNC(=O)OCc1ccccc1)C(N)=O` [Ac-YDHFK(εZ)-NH2] (Ac-[dY][dD][dH][dF][dK](Cbz)-NH2): under setting [1], the inhibition at 0.01 µM amounted to 8%. Also, the IC50 under setting [2] was over 10 nM. The matching figures for `CC(=O)N[C@H](Cc1ccc(O)cc1)C(=O)N[C@H](CC(=O)O)C(=O)N[C@H](Cc1c[nH]cn1)C(=O)N[C@H](CCC(N)=O)C(=O)N[C@H](CCCCNC(=O)OCc1ccccc1)C(N)=O` [Ac-YDHQK(εZ)-NH2] (Ac-[dY][dD][dH][dQ][dK](Cbz)-NH2): 2% and over 10 nM. For `CC(=O)N[C@@H](Cc1ccc(O)cc1)C(=O)N[C@@H](CC(=O)O)C(=O)N[C@@H](CCCCN)C(=O)N[C@@H](Cc1c[nH]c2ccccc12)C(N)=O` [Ac-YDKW-NH2] (Ac-YDKW-NH2), the inhibition at 0.042 µM under setting [6] was 43%. Moreover, the IC50 under setting [7] is over 10 nM. On to `CC(=O)N[C@H](Cc1ccc(O)cc1)C(=O)N[C@H](CCC(=O)O)C(=O)N[C@H](C)C(=O)N[C@H](Cc1ccccc1)C(N)=O` [Ac-YEAF-NH2] (Ac-[dY][dE][dA][dF]-NH2), for which, under setting [3], the inhibition at 0.042 µM is 13%.
